Data as given in patent EP1566447A1, “Glimepiride- and insulin-induced glycosylphosphatidylinositol-specific phospholipase C regulation” (priority 2004, dated 2005).

Tested on: bacterial, trypanosomal, serum and rat adipocyte GPI-PLC/D
Assay: (G)PI-PLC/D of various origin, results stated collectively
Format: biochemical
Procedure: GPI-PLD (rat serum) was assayed according to "Hari et al. (1997) Biochim. Biophys. Acta 1355: 293-302" by incubation with 10 µl of human placental aP solution (100 U/ml in 10 mM Hepes/NaOH, pH 7.0, 150 mM NaCl) in 100 µl of 200 mM Tris/maleate (pH 7.0) and 1 % Nonidet P-40 for 10 min at 37°C and subsequent termination of the reaction by addition of 0.4 ml of ice-cold stop buffer (10 mM Hepes/NaOH, pH 7.0, 150 mM NaCl, 0.1 mM MgCl2 and 0.01 mM zinc acetate). GPI-PLC (T. brucei) was assayed as described in "Mensa-Wilmot et al. (1995) Methods Enzymol. 250: 641-655" by incubation with 5 µl of human placental aP solution (see above) in 50 µl of 50 mM Tris/HCl (pH 8.0), 0.25 % Nonidet P-40 and 5 mM EDTA for 30 min at 37°C and subsequent termination of the reaction by addition of 0.45 ml of stop buffer. […]
Pelleted hc/IcDIGs (10-50 µg protein) or (G)PI-PLC reaction mixtures (0.5 ml) were separated into amphiphilic and hydrophilic proteins using partitioning between TX-114-enriched and depleted phases according to "Bordier, C., (1981) J. Biol, Chem. 272: 2542-2550" by suspending in 1 ml of ice-cold TX-114 (1 %), 25 mM Tris/HCl (pH 7.4), 144 mM NaCl or mixing with 0.5 ml of ice-cold TX-114 (2 %), respectively. […] After re-extraction of the lower TX-114-enriched phase, aliquots of the pooled upper TX-114-depleted phase were measured for 5'-Nuc, aP and AChE activity or precipitated (15 % polyethylene glycol 4000) for SDS-PAGE analysis.
GPI-2350 inhibits (G)PI-PLC/D of various origin with high potency and selectivity: The effect of GPI-2350 on (purified or crude) B. cereus PI-PLC, T. brucei GPI-PLC and rat serum GPI-PLD was monitored by their incubation with partially purified solubilized GPI proteins under appropriate conditions (low or high detergent conc.) in the presence of increasing concentrations of GPI-2350. […]

## CCCCCCCCCCCCP1(=O)O[C@@H]2[C@H](O)[C@@H](O)[C@H](O)[C@@H](O)[C@@H]2O1 (mixture of isomers) [GPI-2350, myo-inositol-1,2-cyclo-dodecylphosphonic acid]
50 µM, one range for all four enzymes, Fig. 3
  blocked GPI-PLC/D by: 60 to 95%
Bacterial and trypanosomal (G)PI-PLC, dilution with excess of fresh GPI-protein substrate
  reversal of half-maximal inhibition upon 10-fold dilution: completely reversed
bacterial, trypanosome and serum GPI-PLC and GPI-PLD, one range for all
  IC50: 0.2 to 10 µM
